Measurements reported in patent US5229419A, “Chemotherapeutically active acetogenins” (Purdue Research Foundation, priority 1992, dated 1993).
Converted amounts (≈) assume the structure as drawn. Read-outs that look alike come from different tables or passages of the source.

What was measured:
[1] = test system: brine shrimp (Artemia salina Leach); assay: whole plant or invertebrate; format: in vivo; details: 24 hrs, read-out: BST LC50
Method: The extracts, fractions, and isolated compounds were routinely evaluated for lethality to brine shrimp larvae (BST). The LC50 of brine shrimp (Artemia salina Leach) was determined by substantially the same method described by Meyer et al. [Planta Med., 45: 31-34 (1982)]. The test sample was dissolved in solvent and added to 2-dram vials in an amount to provide 1000, 100, 10, 1, etc. p.p.m. of material in the final brine preparation, assuming complete miscibility in the brine. The vials were dried in vacuo, and artificial sea water, prepared from a commercial salt mixture, was added. Ten brine shrimp larva (nauplii), 48-72 hrs. old, were introduced to the vial, and the volume was made up to 5 ml. with the sea water. After 24 hrs., the percent mortality was computed. Subsequently, LC50 values and 95% confidence limits were calculated by a Finney probit analysis to permit comparison of potencies of extracts and fractions.
(§1) Anticancer activity is a potential use even for the crude extract. The bioassay results for the lethality of brine shrimp (BST), the inhibition of crown gall tumors on potato discs (PD), the reversal in morphology of db-cAMP induced AC glioma cells from that of mature, differentiated astrocytes to that of immature AC glioma cells (mouse brain cells) (9ASK), the dose that inhibits cell growth to one-half that of untreated poorly differentiated human epidermic carcinoma (9KB), the dose that inhibits cell growth to one-half that of a methylcholanthrene-induced lymphoid neoplasm in a DBA/2 mouse (9PS), and the percent displacement in a protein kinase C test for initial extract fractions are shown in Table 1. Obviously, the bioactivity is concentrated in F005.

[2] = test system: 9KB (human nasopharyngeal carcinoma); assay: 9KB cytotoxicity; format: cell-based
Method: (§2) Occasional checks in the potato disc (PD) assay assured us that antitumor activity was present [Ferrigni et al., J. Nat. Prod., 45; 679-686 (1982)]. Cytotoxicity tests were performed at the Purdue Cell Culture Laboratory, Purdue Cancer Center, using standard protocols for 9KB (human nasopharyngeal carcinoma) and 9PS (a chemically-induced murine lymphocytic leukemia) [Suffness et al., Methods In Cancer Research. Vol. 16: 73 (1979), V. T. DeVita, Jr. and H. Busch eds., Academic Press, New York], 9ASK (astrocytoma reversal) [Lgarashi et al., Cell Struct. and Funct., 3: 107 (1978)], A-549 (human lung carcinoma) [Giard et al., J. Nat. Cancer Inst., 51: 1417-1423 (1973)], and HT-29 (human colon adenocarcinoma) [Fogh J. (ed.), Human Tumor Cells, In Vitro, Plenum Press, New York: 115-159 (1975)].
as §1

[3] = test system: HT-29 (human colon adenocarcinoma); assay: HT-29 cytotoxicity; format: cell-based; details: HT-29, read-out: HT29 ED50
Method: as §2
(§3) These two compounds are the most bioactive acetogenins reported to this date. But the safety range for treatments might be larger. In this table, two cytotoxicity tests against human tumor cell lines such as the human lung carcinoma (A-549) [Giard et al., J. Nat. Cancer Inst. 51: 1417-1423 (1973)] and the human colon adenocarcinoma (HT-29) [Fogh, J. (ed.) Human Tumor Cells, In Vitro, pp. 115-159, Plenum Press, New York (1975)] have been performed. […] The mode of action for the acetogenins is still unknown, but it is postulated to involve cell membranes.

[4] = test system: 9PS (murine lymphocytic leukemia); assay: 9PS cytotoxicity; format: cell-based; details: Mus musculus; read-out: 9PS ED50
Method: as §2, §1

[5] = test system: A-549 (human lung carcinoma); assay: A-549 cytotoxicity; format: cell-based; details: A549, read-out: A549 ED50
Method: as §2, §3

PS = details: cited from earlier work
[6] = test system: P-388 (PS) lymphocytic leukemia; details: cited from earlier work
blow fly larvae = details: cited from earlier work
[7] = test system: 9KB (human nasopharyngeal carcinoma); details: cited from earlier work
stripped cucumber beetle = details: cited from earlier work
Mexican bean beetle = details: cited from earlier work
mosquito larvae = details: cited from earlier work
two spotted spider mites = details: cited from earlier work
[8] = test system: free-living nematode, Caenorabditis elegans; details: cited from earlier work
melon aphid = details: cited from earlier work
mice = details: cited from earlier work
[9] = test system: 9PS (murine lymphocytic leukemia); details: cited from earlier work
3PS lymphocytic leukemia = details: 0.0125 mg/kg; cited from earlier work
[10] = test system: P-388 lymphocytic leukemia; details: cited from earlier work
human tumor cell lines = assay: selectivity of cytotoxicity between human tumor cell lines A-549 and HT-29; format: cell-based; details: compared with bullatacin; A-549 vs HT-29
Source text: as §3

indicator organisms = assay: pesticidal bioassays, overall; details: in vivo
Method: Pesticidal bioassays were conducted at Eli Lilly Laboratories (Greenfield, Ind.) following standard procedures with eight indicator organisms: mosquito larvae (ML) Aedes aegypti (in the media), blowfly larvae (BFL) (1% in the diet), corn root worm (CRW) Diabrotics undecimcuntata howardii (in soil), two-spotted spider mite (2SSM) Tetranychus urticae (on foliage), southern army worm (SAW) Spodoptera eridania (on foliage), melon aphid (MA) (5000 ppm on foliage), cotton aphid (CA) Aphis gossypii, (on foliage) and Haemonchus contortus (HC) (a nematode, 0.1% in the media).
The compounds can be formulated at concentrations of about 1 to about 200 ppm in conventional liquid or solid forms for application to pest infected areas.

With `CCCCCCCCCC[C@H](OC(C)=O)[C@H]1CC[C@H]([C@H]2CC[C@H]([C@@H](CCCCCCCCCC[C@@H]3C[C@@H](CC(C)=O)C(=O)O3)OC(C)=O)O2)O1` [Bullatacinone diacetate] the LC50 [1] was greater than 10 µg/mL, the “9KB ED50” value [2] was 5000 µg/mL and the IC50 [3] was 100 ng/mL. It also gave an IC50 [4] of 0.0422 µg/mL and an IC50 [5] of 28 ng/mL.

For `CCCCCCCCCCC(O)C1CCC(C2CCC(C(O)CCCCCCCCCCC(O)CC3=CC(C)OC3=O)O2)O1` (stereo not shown) [rolliniastatin], the life extension (PS) is given as 28%.

For `CCCCCCCCCC[C@H](OC(C)=O)[C@H]1CC[C@H]([C@H]2CC[C@H]([C@H](O)CCCCCCCCCCCCC3=C[C@H](C)OC3=O)O2)O1` [Uvaricin], the “activity in vivo against P-388 lymphocytic leukemia in mice” value [6] is given as “demonstrated activity in vivo”.

For `CCCCCCCCCCC(O)C1CCC(C2CCC(C(O)CCCCCCCCCCC(O)CC3=CC(C)OC3=O)O2)O1` (stereo not shown) [Asimicin], the pesticidal activity (blow fly larvae) is given as “Promising pesticidal activity”, the “9KB ED50” value [7] is given as < 10^-5 μg/ml and the pesticidal activity (stripped cucumber beetle) is given as “Promising pesticidal activity”. For the same molecule, the pesticidal activity (Mexican bean beetle) was “Promising pesticidal activity”, the pesticidal activity (mosquito larvae) was “Promising pesticidal activity” and the pesticidal activity (two spotted spider mites) was “Promising pesticidal activity”. The pesticidal activity [8] was “Promising pesticidal activity”, the pesticidal activity (melon aphid) was “Promising pesticidal activity” and the “toxic to mice at” value (mice) was 6.25 mg/kg. For the same molecule, the “9PS ED50” value [9] was < 10^-7 μg/ml and the “% T/C” value (3PS lymphocytic leukemia) was 124 % T/C.

In the case of `CCCCCCCCC[C@@H](O)[C@@H](O)[C@@H]1CC[C@@H]([C@@H]2CC[C@@H]([C@@H](O)CCCCCCCCCCCCC3=CC(C)OC3=O)O2)O1` (stereo partly shown) [rollinicin], the “in vitro cytotoxicity against P-388” value [10] is given as “in vitro cytotoxicity”.

For `CCCCCCCCCC[C@H](O)[C@H]1CC[C@H]([C@H]2CC[C@H]([C@H](O)CCCCCCCCCC[C@@H](O)CC3C[C@H](C)OC3=O)O2)O1` (stereo partly shown) [Dihydro-bullatacin], the LC50 [1] was 0.0145 µg/mL (≈ 23.2 nM), the IC50 [3] was 0.0333 ng/mL (≈ 0.0533 nM) and the IC50 [5] was less than 0.001 ng/mL.

For `CCCCCCCCCC[C@H](O)[C@H]1CC[C@H]([C@H]2CC[C@H]([C@H](O)CCCCCCCCCCC3CC(CC(C)=O)C(=O)O3)O2)O1` (stereo partly shown) [Bullatacinone], the LC50 [1] was 0.003 µg/mL (≈ 4.82 nM), the selectivity of cytotoxicities (human tumor cell lines) was “more selective cytotoxicities than bullatacin” and the “9KB ED50” value [2] was < 10^-12 mcg/ml. For the same molecule, the “pesticidal activity” value (indicator organisms) was “lack of pesticidal activity”, the IC50 [4] was 0.00423 µg/mL (≈ 6.79 nM) and the IC50 [5] was 1 ng/mL (≈ 1.61 nM).

For `CCCCCCCCCC[C@H](OC(C)=O)[C@H]1CC[C@H]([C@H]2CC[C@H]([C@@H](CCCCCCCCCC[C@H](CC3=C[C@H](C)OC3=O)OC(C)=O)OC(C)=O)O2)O1` [Bullatacin triacetate], the LC50 [1] was 5.7 µg/mL, the “9KB ED50” value [2] was 6.85e-07 µg/mL and the IC50 [3] was greater than 100 ng/mL. The IC50 [4] was 0.00389 µg/mL and the IC50 [5] was 2 ng/mL.

For `CCCCCCC(O)CCCC(O)C1CCC(C2CCC(C(O)CCCCCCCCCCCCC3=CC(C)OC3=O)O2)O1` (stereo not shown) [isorollinicin], the “in vitro cytotoxicity against P-388” value [10] is given as “in vitro cytotoxicity”.
